The test system of one assay is HCT116 MTAP null cells. Kind of assay: HCT116 MTAP null cell line proliferation (CellTiter-Glo cell viability, 6 days). Particulars: HCT116 MTAP null cells, 6 days of treatment, CellTiter-Glo cell viability, read-out: HCT-116 MTAP null IC50. It is filed as cell-based. An outline of the steps:
(§1)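 Viability by CellTiter-Glo after 6 days' drug exposure in wild-type HCT116 and its MTAP-null knockout, with DMSO-only control. Dosing used either 1:3 steps (top 1 or 10 μM) or 22 points in 1:2 steps (top 10 or 50 μM). IC50 taken where the fitted curve crosses 50% of control.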

Another assay deals with HCT116 WT cells. As to the kind of experiment: HCT116 WT cell line proliferation (CellTiter-Glo cell viability, 6 days). It is filed as cell-based. To be noted: HCT116 WT (parent) cells, 6 days of treatment, CellTiter-Glo cell viability, read-out: HCT-116 WT IC50. The method in brief: as §1
In general terms: ATP-based viability assays read luminescence as a measure of living cells.

Structures are written as SMILES. Where two headings read alike, the source gives them in different places.

Usually IC50 stands for the midpoint of a concentration-inhibition curve.

`C[C@H]1OCc2c1c(N)nc1ccc(C(=O)N3C[C@@H](c4ccccc4)[C@@H]4COCC[C@@H]43)cc21` [Example 399, ((3R)-4-amino-3-methyl-1,3-dihydrofuro[3,4-c]quinolin-8-yl)((3R,3aS,7aS)-3-phenylhexahydropyrano[4,3-b]pyrrol-1(4H)-yl)methanone]: the IC50 in the assay on HCT116 MTAP null cells (HCT116-MTAP null, 144 h) stood at 197 nM; in the assay with HCT116 WT cells (Homo sapiens, HCT-116, 144 h), 13000 nM.

As to `C[C@H]1OCc2c1c(N)nc1ccc(C(=O)N3C[C@@H](c4ccccc4)[C@@H]4CCC[C@@H]43)cc21` [Example 400, ((3R)-4-amino-3-methyl-1,3-dihydrofuro[3,4-c]quinolin-8-yl)((3R,3aS,6aS)-3-phenylhexahydrocyclopenta[b]pyrrol-1(2H)-yl)methanone], the IC50 in the assay on HCT116 MTAP null cells (HCT116-MTAP null, 144 h) was 159 nM; with HCT116 WT cells (Homo sapiens, HCT-116, 144 h) it was 7000 nM.

For the compound `C[C@H]1OCc2c1c(N)nc1ccc(C(=O)N3C[C@H](c4ccccc4)[C@H]4CCC[C@@H]43)cc21` [Example 401, ((3R)-4-amino-3-methyl-1,3-dihydrofuro[3,4-c]quinolin-8-yl)((3S,3aR,6aS)-3-phenylhexahydrocyclopenta[b]pyrrol-1(2H)-yl)methanone], the IC50 in the assay on HCT116 MTAP null cells (HCT116-MTAP null, 144 h) is 677 nM; in the assay with HCT116 WT cells (Homo sapiens, HCT-116, 144 h), 17600 nM.

Regarding `CC1CN(C(=O)c2ccc3nc(N)c4c(c3c2)CO[C@@H]4C)CC1c1ccc(Br)cc1` (stereo partly drawn) [Example 402, ((3R)-4-amino-3-methyl-1,3-dihydrofuro[3,4-c]quinolin-8-yl)(3-(4-bromophenyl)-4-methylpyrrolidin-1-yl)methanone], the IC50 in the assay on HCT116 MTAP null cells (HCT116-MTAP null, 144 h) came to 833 nM; in the assay with HCT116 WT cells (Homo sapiens, HCT-116, 144 h), 13300 nM.

`Nc1nc2ccc(C(=O)N3CCOC[C@@H]3c3ccc(C(F)(F)F)cc3)cc2n2ccnc12` [Example 403, (4-aminoimidazo[1,2-a]quinoxalin-8-yl)((3S)-3-(4-(trifluoromethyl)phenyl)-4-morpholinyl)methanone]: the IC50 was found to be 765 nM in the assay with HCT116 MTAP null cells (HCT116-MTAP null, 144 h) and 673 nM with HCT116 WT cells (Homo sapiens, HCT-116, 144 h).

On to `Nc1nc2cnc(C(=O)N3CCOC[C@@H]3c3ccc(C(F)(F)F)cc3)cc2c2c1CCO2` [Example 404, (4-amino-2,3-dihydrofuro[3,2-c][1,7]naphthyridin-8-yl)((3S)-3-(4-(trifluoromethyl)phenyl)-4-morpholinyl)methanone], for which the IC50 in the assay with HCT116 MTAP null cells (HCT116-MTAP null, 144 h) worked out at 872 nM; with HCT116 WT cells (Homo sapiens, HCT-116, 144 h), 9760 nM.

As for `Cc1n[nH]c2c1c(N)nc1ccc(C(=O)N3CCOC[C@@H]3c3ccc(C(F)(F)F)cc3)cc12` [Example 405, (4-amino-3-methyl-1H-pyrazolo[4,3-d]quinolin-8-yl)((3S)-3-(4-(trifluoromethyl)phenyl)-4-morpholinyl)methanone], the IC50 in the assay with HCT116 MTAP null cells (HCT116-MTAP null, 144 h) was 181 nM; in the assay on HCT116 WT cells (Homo sapiens, HCT-116, 144 h), 2700 nM.

Turning to `Cc1n[nH]c2c1c(N)nc1cnc(C(=O)N3CCOC[C@@H]3c3ccc(C(F)(F)F)cc3)cc12` [Example 406, (4-amino-3-methyl-1H-pyrazolo[4,3-c][1,7]naphthyridin-8-yl)((3S)-3-(4-(trifluoromethyl)phenyl)-4-morpholinyl)methanone], the 50% inhibitory concentration (IC50) in the assay on HCT116 MTAP null cells (HCT116-MTAP null, 144 h) was 155 nM; in the assay on HCT116 WT cells (Homo sapiens, HCT-116, 144 h), 5640 nM.

Turning to `Nc1nc2cc(F)c(C(=O)N3CCOC[C@@H]3c3ccc(C(F)(F)F)cc3)cc2c2c1CCO2` [Example 407, (4-amino-7-fluoro-2,3-dihydrofuro[3,2-c]quinolin-8-yl)((3S)-3-(4-(trifluoromethyl)phenyl)-4-morpholinyl)methanone], the IC50 in the assay on HCT116 MTAP null cells (HCT116-MTAP null, 144 h) came out at 416 nM; in the assay with HCT116 WT cells (Homo sapiens, HCT-116, 144 h), 4210 nM.

On to `Cn1ncc2c(N)nc3ccc(C(=O)N4CC(c5ccc(C(F)(F)F)cc5)C4)cc3c21` [Example 408, (4-amino-1-methyl-1H-pyrazolo[4,3-c]quinolin-8-yl)(3-(4-(trifluoromethyl)phenyl)-1-azetidinyl)methanone], for which the 50% inhibitory concentration (IC50) in the assay on HCT116 MTAP null cells (HCT116-MTAP null, 144 h) was 118 nM; in the assay with HCT116 WT cells (Homo sapiens, HCT-116, 144 h), 6360 nM.

For the compound `Cn1ncc2c(N)nc3ccc(C(=O)N4CCOC[C@@H]4c4ccc(C(F)(F)C(F)(F)F)cc4)cc3c21` [Example 409, (4-amino-1-methyl-1H-pyrazolo[4,3-c]quinolin-8-yl)((3S)-3-(4-(pentafluoroethyl)phenyl)-4-morpholinyl)methanone], the half-maximal inhibitory concentration (IC50) stood at 29 nM in the assay on HCT116 MTAP null cells (HCT116-MTAP null, 144 h) and 1670 nM in the assay on HCT116 WT cells (Homo sapiens, HCT-116, 144 h).

`Cn1ncc2c(N)nc3cnc(C(=O)N4CCOC[C@@H]4c4ccc(C(F)(F)C(F)(F)F)cc4)cc3c21` [Example 410, (4-amino-1-methyl-1H-pyrazolo[4,3-c][1,7]naphthyridin-8-yl)((3S)-3-(4-(pentafluoroethyl)phenyl)-4-morpholinyl)methanone]: the IC50 is 15 nM in the assay with HCT116 MTAP null cells (HCT116-MTAP null, 144 h) and 444 nM in the assay on HCT116 WT cells (Homo sapiens, HCT-116, 144 h).

For the compound `Cn1ncc2c(N)nc3cc(F)c(C(=O)N4CCOC[C@@H]4c4ccc(C(F)(F)C(F)(F)F)cc4)cc3c21` [Example 411, (4-amino-7-fluoro-1-methyl-1H-pyrazolo[4,3-c]quinolin-8-yl)((3S)-3-(4-(pentafluoroethyl)phenyl)-4-morpholinyl)methanone], the IC50 in the assay with HCT116 MTAP null cells (HCT116-MTAP null, 144 h) is 8 nM; with HCT116 WT cells (Homo sapiens, HCT-116, 144 h), 352 nM.

Regarding `Cc1cc2nc(N)c3cnn(C)c3c2cc1C(=O)N1CCOC[C@@H]1c1ccc(C(F)(F)F)cc1` [Example 413, (4-amino-1,7-dimethyl-1H-pyrazolo[4,3-c]quinolin-8-yl)((3S)-3-(4-(trifluoromethyl)phenyl)-4-morpholinyl)methanone], the concentration for half-maximal inhibition (IC50) was determined as 22 nM in the assay on HCT116 MTAP null cells (HCT116-MTAP null, 144 h) and 413 nM with HCT116 WT cells (Homo sapiens, HCT-116, 144 h).

For `Cc1cc2nc(N)c3c(cnn3C)c2cc1C(=O)N1CCOC[C@@H]1c1ccc(C(F)(F)F)cc1` [Example 414, (4-amino-3,7-dimethyl-3H-pyrazolo[3,4-c]quinolin-8-yl)((3S)-3-(4-(trifluoromethyl)phenyl)-4-morpholinyl)methanone], the IC50 with HCT116 MTAP null cells (HCT116-MTAP null, 144 h) came out at 56 nM; in the assay with HCT116 WT cells (Homo sapiens, HCT-116, 144 h), 2800 nM.

Consider `Cc1nc2nc(N)c3cnn(C)c3c2cc1C(=O)N1CCOC[C@@H]1c1ccc(C(F)(F)F)cc1` [Example 415, (4-amino-1,7-dimethyl-1H-pyrazolo[4,3-c][1,8]naphthyridin-8-yl)((3S)-3-(4-(trifluoromethyl)phenyl)-4-morpholinyl)methanone], for which the IC50 came out at 73 nM in the assay on HCT116 MTAP null cells (HCT116-MTAP null, 144 h) and 3340 nM in the assay on HCT116 WT cells (Homo sapiens, HCT-116, 144 h).

Consider `C[C@H]1OCc2c1c(N)nc1ccc(C(=O)N3CCOC[C@@H]3c3ccc(S(F)(F)(F)(F)F)cc3)cc21` [Example 416, ((3R)-4-amino-3-methyl-1,3-dihydrofuro[3,4-c]quinolin-8-yl)((3S)-3-(4-(pentafluoro-lambda~6~-sulfanyl)phenyl)-4-morpholinyl)methanone], for which the IC50 with HCT116 MTAP null cells (HCT116-MTAP null, 144 h) stood at 33 nM; in the assay with HCT116 WT cells (Homo sapiens, HCT-116, 144 h) it was 867 nM.

Turning to `C[C@H]1OCc2c1c(N)nc1cnc(C(=O)N3CCOC[C@@H]3c3ccc(S(F)(F)(F)(F)F)cc3)cc21` [Example 417, ((3R)-4-amino-3-methyl-1,3-dihydrofuro[3,4-c][1,7]naphthyridin-8-yl)((3S)-3-(4-(pentafluoro-lambda~6~-sulfanyl)phenyl)-4-morpholinyl)methanone], the IC50 in the assay with HCT116 MTAP null cells (HCT116-MTAP null, 144 h) was 17 nM; in the assay on HCT116 WT cells (Homo sapiens, HCT-116, 144 h) it was 523 nM.

On to `Nc1nc2cc(Cl)c(C(=O)N3CCOC[C@@H]3c3ccc(S(F)(F)(F)(F)F)cc3)cc2c2c1COC2` [Example 418, (4-amino-7-chloro-1,3-dihydrofuro[3,4-c]quinolin-8-yl)((3S)-3-(4-(pentafluoro-lambda~6~-sulfanyl)phenyl)-4-morpholinyl)methanone], for which the half-inhibitory concentration (IC50) with HCT116 MTAP null cells (HCT116-MTAP null, 144 h) is 10 nM; in the assay on HCT116 WT cells (Homo sapiens, HCT-116, 144 h), 243 nM.

With `Cn1ncc2c3cc(C(=O)N4CCOC[C@@H]4c4ccc(S(F)(F)(F)(F)F)cc4)c(Cl)cc3nc(N)c21` [Example 419, (4-amino-7-chloro-3-methyl-3H-pyrazolo[3,4-c]quinolin-8-yl)((3S)-3-(4-(pentafluoro-lambda~6~-sulfanyl)phenyl)-4-morpholinyl)methanone], the IC50 in the assay on HCT116 MTAP null cells (HCT116-MTAP null, 144 h) is 23 nM; in the assay with HCT116 WT cells (Homo sapiens, HCT-116, 144 h) it was 548 nM.

With `Cn1ncc2c(N)nc3cc(F)c(C(=O)N4CCOC[C@@H]4c4ccc(C(F)(F)F)cc4)cc3c21` [Example 420, (4-amino-7-fluoro-1-methyl-1H-pyrazolo[4,3-c]quinolin-8-yl)((3S)-3-(4-(trifluoromethyl)phenyl)-4-morpholinyl)methanone], the 50% inhibitory concentration (IC50) in the assay on HCT116 MTAP null cells (HCT116-MTAP null, 144 h) was determined as 12 nM; in the assay with HCT116 WT cells (Homo sapiens, HCT-116, 144 h) it was 338 nM.

For `C[C@H]1OCc2c1c(N)nc1ccc(C(=O)N3CC(c4ccc(C(F)(F)F)cn4)C3)cc21` [Example 421, ((3R)-4-amino-3-methyl-1,3-dihydrofuro[3,4-c]quinolin-8-yl)(3-(5-(trifluoromethyl)-2-pyridinyl)-1-azetidinyl)methanone], the IC50 in the assay on HCT116 MTAP null cells (HCT116-MTAP null, 144 h) was 914 nM; in the assay on HCT116 WT cells (Homo sapiens, HCT-116, 144 h), above 50000 nM.

For the compound `Nc1nc2cc(F)c(C(=O)N3CC(c4ccc(C(F)(F)F)cc4)C3)cc2c2c1COC2` [Example 422], the figures for the IC50 with HCT116 MTAP null cells and in the assay on HCT116 WT cells were 633 nM and 12500 nM, respectively.

As for `Nc1nc2cc(F)c(C(=O)N3CC(c4ccc(C(F)(F)F)cn4)C3)cc2c2c1COC2` [Example 423, (4-amino-7-fluoro-1,3-dihydrofuro[3,4-c]quinolin-8-yl)(3-(5-(trifluoromethyl)-2-pyridinyl)-1-azetidinyl)methanone], the IC50 with HCT116 MTAP null cells (HCT116-MTAP null, 144 h) is 653 nM; in the assay with HCT116 WT cells (Homo sapiens, HCT-116, 144 h), 33300 nM.

Turning to `Cn1ncc2c(N)nc3ccc(C(=O)N4CC[C@H](c5ccc(C(F)(F)F)cc5)C4)cc3c21` [Example 425, (4-amino-1-methyl-1H-pyrazolo[4,3-c]quinolin-8-yl)((3R)-3-(4-(trifluoromethyl)phenyl)-1-pyrrolidinyl)methanone], the IC50 was determined as 147 nM in the assay with HCT116 MTAP null cells (HCT116-MTAP null, 144 h) and 4400 nM in the assay on HCT116 WT cells (Homo sapiens, HCT-116, 144 h).

For `Cn1ncc2c(N)nc3cnc(C(=O)N4CC[C@H](c5ccc(C(F)(F)F)cc5)C4)cc3c21` [Example 426, (4-amino-1-methyl-1H-pyrazolo[4,3-c][1,7]naphthyridin-8-yl)((3R)-3-(4-(trifluoromethyl)phenyl)-1-pyrrolidinyl)methanone], the IC50 in the assay on HCT116 MTAP null cells (HCT116-MTAP null, 144 h) worked out at 97 nM; with HCT116 WT cells (Homo sapiens, HCT-116, 144 h), 4760 nM.

Values taken from US11845760B2, “PRMT5 inhibitors” (AMGEN INC., priority 2020, dated 2023).
